Test results: patent publication US20090048233A1, “Enhancing the Tolerability of a Seratonin Antagonist and a NSRI, a SNRI or a RIMA by Using Them in Combination” (CYPRESS BIOSCIENCES, INC., priority 2007, published 2009)

Legend:
[1] = controlled studies; cited from earlier work
normal, health subjects [2] = assay: Example 1A tolerability study, mirtazapine and 1S,2R-enriched milnacipran; details: 6 weeks, milnacipran with 1S,2R:1R,2S ratio about 55:45 to 90:10
Description: (§1) The subjects receive 2 capsules per day, one in the morning and one at bedtime. […] All medications are administered in an over-encapsulated format that ensures blinding of study participants, staff and investigators. All subjects are scheduled to receive a total of 6 weeks of therapy, and are required to return to the clinics after 1, 2, 4 and 6 weeks of therapy. Patients are required to complete paper self-assessments, electronic diary assessments, computer based cognitive testing, as well as vital signs and weight assessments at the clinic visits.

normal, health subjects [3] = assay: Example 4 tolerability study, mirtazapine and milnacipran; details: 6 weeks, 15 mg mirtazapine or 50 mg milnacipran
Description: as §1

normal, health subjects [4] = assay: Example 1 tolerability study, mirtazapine and milnacipran or duloxetine; details: 6 weeks, 15 mg mirtazapine or 100 mg milnacipran or duloxetine
Description: as §1

[5] = test system: chronic tension type headache; details: controlled trial; cited from earlier work
normal, health subjects [6] = assay: Example 5 tolerability study, mirtazapine and duloxetine; format: in vivo, human; details: 6 weeks, 15 mg mirtazapine or 30 mg duloxetine
[7] = test system: cancer patients with pain; details: open trial in cancer pain, 15 and 30 mg; cited from earlier work
[8] = test system: patients with fibromyalgia; details: open study; cited from earlier work
[9] = test system: reuptake of noradrenaline and serotonin; details: in vivo; cited from earlier work

| Structure (SMILES) | appetite increase reported, share of patients [1] [%] | weight gain of greater than or equal to 7% of body weight reported, share of patients [1] [%] | side effects of the drug alone (normal, health subjects [2]) | side effects of the drug alone (normal, health subjects [3]) | side effects of the drug alone (normal, health subjects [4]) | efficacy in chronic tension type headache [5] | side effects of the drug alone (normal, health subjects [6]) | depression levels [7] | pain intensity [7] | activity in fibromyalgia pain [8] | potency for inhibiting the reuptake of both noradrenaline and serotonin [9] |
| --- | --- | --- | --- | --- | --- | --- | --- | --- | --- | --- | --- |
| CN(C)CCC=C1c2ccccc2CCc2ccccc21 [amitriptyline] | 6 | 5.9 |  |  |  |  |  |  |  |  |  |
| CN1CCN2c3ncccc3Cc3ccccc3C2C1 (stereo not drawn) [mirtazapine, 1,2,3,4,10,14b-hexahydro-2-methylpyrazino [2,1-a]pyrido[2,3-c]benzazepine] |  |  | does cause weight gain, sedation, and cognitive deficits | does cause weight gain, sedation, and cognitive deficits | does cause weight gain, sedation, and cognitive deficits | suggested efficacy in chronic tension type headache | does cause weight gain, sedation, and cognitive deficits | significant improvements were obtained in depression levels | pain intensity was not statistically improved | has some activity in fibromyalgia pain |  |
| CCN(CC)C(=O)[C@@]1(c2ccccc2)C[C@H]1CN (racemic) [milnacipran, cis-(±)-2-(aminomethyl)-N,N-diethyl-1-phenylcyclopropanecarboxamide] |  |  | causes insomnia, nausea/vomiting, and weight loss | causes insomnia, nausea/vomiting, and weight loss | causes insomnia, nausea/vomiting, and weight loss |  |  |  |  |  | nearly equal potency |
| CNCC[C@H](Oc1cccc2ccccc12)c1cccs1 [duloxetine, (+)-(S)—N-methyl-3-(1-naphthyloxy)-3-(thiophen-2-yl)-propan-1-amine] |  |  | causes insomnia, nausea/vomiting, and weight loss | causes insomnia, nausea/vomiting, and weight loss | causes insomnia, nausea/vomiting, and weight loss |  | causes insomnia, nausea/vomiting, and weight loss |  |  |  |  |
